Measured values as given in paper PMC12040169 (PLOS Biology, 2025).

assay: in vitro; details: human, hela cells, % viability

| Structure (SMILES) | viability at 28.5 h, 10 µM |
| --- | --- |
| Cc1c(C(=O)N2CCN(C3CC3)CC2)nnn1Cc1ccc(F)cc1F [CBK305507] | 97.1% |
| Cc1cccn2c(=O)cc(CN3CCc4nn(C)c(=O)cc4C3)nc12 [CBK305514] | 98.2% |
| CCNC(=O)CN1CCN(c2nc(C(F)(F)F)ccc2C#N)CC1 [CBK305515] | 86.4% |
| CCCC(=O)Nc1ccc(OCc2ncc(C(C)C)o2)c(C(C)=O)c1 [CBK305516] | 100% |
| CC(=O)c1cccc(NC(=O)N(CCO)C2CCc3ccccc32)c1 (stereo not shown) [CBK305517] | 93.4% |
| Cc1cccn2c(=O)cc(CN3CCC(n4ccnc4)CC3)nc12 [CBK305519] | 92.3% |
| CNC(=O)c1ccc(NC(=O)N2CCCCC2c2ccnn2C)cc1 (stereo not shown) [CBK305521] | 112% |
| Cc1nnsc1C(=O)Nc1ncn(CC(=O)N2CCCCCC2)n1 [CBK305522] | 96.9% |
| COc1ccc(Cl)cc1C1(CNC(=O)C2CCC(N)C2)CCOCC1 (stereo not shown) [CBK305523] | 85.9% |
| O=C(O)c1ccc(C(=O)NC2CCN(CC(F)(F)F)C2=O)s1 (stereo not shown) [CBK305524] | 95.4% |
| CC(=O)Nc1cccc(CN2CCCC(CO)C2)c1 (stereo not shown) [CBK305527] | 91.9% |
| Cc1nnnn1-c1cc(NC(=O)NCC2CCCO2)ccc1F (stereo not shown) [CBK305528] | 105% |
| Cc1c(C(=O)N2CCS(=O)(=O)CC2)nnn1-c1ccc2ncccc2c1 [CBK305529] | 112% |
| CN(C(=O)C1(C)CCOCC1)c1nc2c(s1)CC(c1ccccc1)CC2 (stereo not shown) [CBK305531] | 82.8% |
| O=C1NC(=O)C2(CCN(C(=O)c3csc4c3CCCC4)C2)N1 (stereo not shown) [CBK305533] | 89.8% |
| CC(C)Cc1nc(C(=O)N2CCC3(C2)NC(=O)NC3=O)cs1 (stereo not shown) [CBK305534] | 91.8% |
| CC(C)N(C)CC(=O)N(C)c1nc2c(s1)CC(c1ccccc1)CC2 (stereo not shown) [CBK305535] | 93.7% |
| Cn1cc(CNS(=O)(=O)c2ccc(Br)c(F)c2)cn1 [CBK305539] | 87.7% |
| CC1CCC(N(Cc2nnc(C3CCC3)n2C)CC2CCCO2)CC1 (stereo not shown) [CBK305540] | 97.3% |
| O=C(c1ccc2cc[nH]c2c1)N1CCN(CC2CCOC2)CC1 (stereo not shown) [CBK305541] | 99.2% |
| CC(C)n1nnnc1-c1ccccc1NS(=O)(=O)c1cn[nH]c1 [CBK305542] | 88.6% |
| O=C(NC1CC(=O)N(CC(F)(F)F)C1)c1cnc(-c2ccncc2)s1 (stereo not shown) [CBK305546] | 78% |
| CCOc1cc(NC2CCN(C(=O)C3CCCC(C)(C)C3)CC2)ncn1 (stereo not shown) [CBK305547] | 80.9% |

| Structure (SMILES) | viability at 28.5 h, 10 µM |
| --- | --- |
| Cc1nnc(CN(CC2CCCO2)C2CCC(C)CC2)n1C (stereo not shown) [CBK305548] | 95.2% |
| O=C(c1c[nH]nc1-c1cc2ccccc2o1)N1CCC(O)(C(F)(F)F)C1 (stereo not shown) [CBK305549] | 90.7% |
| CCC(=O)N1CCC(NC(=O)c2cnc(-c3ccncc3)s2)C1 (stereo not shown) [CBK305550] | 94.6% |
| COc1ccc(-n2nnc(C(=O)N3CCCCC3C(N)=O)c2C)cc1 (stereo not shown) [CBK305551] | 98.1% |
| Cc1ccc2c(c1)nc(CNC(=O)NCCc1nc(C)no1)n2C [CBK305552] | 98.8% |
| Cc1ccc2c(c1)nc(CNC(=O)NC1CCCc3cn[nH]c31)n2C (stereo not shown) [CBK305554] | 77.5% |
| CC1(O)CCCN(C(=O)c2c[nH]nc2-c2cc3ccccc3o2)C1 (stereo not shown) [CBK305555] | 88.3% |
| CCS(=O)(=O)N1CCc2cc(-c3csc(-c4cnn(C)c4)n3)ccc21 [CBK305560] | 93.7% |
| Cc1ccc(Cl)cc1NC(=O)C1CC(=O)N(Cc2ccccn2)C1 (stereo not shown) [CBK305561] | 101% |
| Cc1cc(NC(=O)CN(C)C(=O)Cc2cccc(C(F)(F)F)c2)no1 [CBK305564] | 80.5% |
| O=C1NC2(CCCC2)C(=O)N1Cc1cnn(-c2ccccc2)n1 [CBK305568] | 103% |
| Cc1oc(NC(=O)CN2CCN(c3ncccn3)CC2)c(C#N)c1C [CBK305569] | 94.6% |
| O=C1NC2(CCCCC2)C(=O)N1Cc1cnn(-c2ccccc2)n1 [CBK305570] | 97.8% |
| Cn1ccc(C(=O)NCc2cccnc2OCC(F)(F)F)cc1=O [CBK305574] | 99.9% |
| Cc1cc(NC(=O)CN(C)C(=O)c2ccc(-n3cc(Br)cn3)cc2)no1 [CBK305575] | 100% |
| CN(C1CCCCC1)S(=O)(=O)NCCc1cn2ccccc2n1 [CBK305576] | 102% |
| CCn1c(=O)n(CCC(N)=O)c2cc(S(=O)(=O)N(C)C)ccc21 [CBK305577] | 99.6% |
| O=C(NCc1cccnc1OCC(F)(F)F)c1ccc(=O)[nH]n1 [CBK305578] | 92.1% |
| O=C(Cn1ccc(=O)[nH]c1=O)NCc1cccnc1OC1CCCC1 [CBK305582] | 94.9% |
| CCOC(=O)Cc1csc(SC(C)C(=O)N2CCc3ccccc3C2)n1 (stereo not shown) [CBK305586] | 99.9% |
| COCCn1nc(C(=O)N2CCCc3ccccc32)ccc1=O [CBK305590] | 85.1% |
| CC(=O)Nc1nc(CN2CCOC(c3ccc(F)cc3)C2)cs1 (stereo not shown) [CBK305591] | 98.5% |
| O=C(Cn1cccn1)NCC(c1ccccc1Cl)N1CCOCC1 (stereo not shown) [CBK305593] | 93.1% |

| Structure (SMILES) | viability at 28.5 h, 10 µM |
| --- | --- |
| CCCC1(C)NC(=O)N(Cc2coc(-c3cccs3)n2)C1=O (stereo not shown) [CBK305594] | 100% |
| O=C(NCCc1ccsc1)N1CCN(c2ccncc2)CC1 [CBK305595] | 102% |
| CN(CC1CCCN(C(=O)Nc2cccc(Cl)c2)C1)C(=O)OC(C)(C)C (stereo not shown) [CBK305597] | 94.2% |
| CN1CCN(c2nc(-c3ccc4c(c3)CCCC(=O)N4)cs2)CC1 [CBK305600] | 98.6% |
| O=C1NC(=O)C2(CCN(C(=O)c3csc4c3CCCC4)CC2)N1 [CBK305601] | 97.2% |
| CC(=O)N1CCN(C(=O)C(C)S(=O)(=O)c2ccccc2F)CC1 (stereo not shown) [CBK305603] | 97.7% |
| CCOc1ccc(CN(C)CC(=O)Nc2cc(C)no2)cc1 [CBK305605] | 79.8% |
| CCOc1ccc(CN(C)C(C)C(=O)Nc2cc(C)no2)cc1 (stereo not shown) [CBK305607] | 96.6% |
| COCCNC(=O)CN(C)c1nc(-c2ccncc2)nc2ccccc12 [CBK305611] | 94.2% |
| Cn1cc(CCNC(=O)NC2CCN(c3ncccn3)CC2)cn1 [CBK305612] | 104% |
| CCOC(=O)c1cnn2c(O)cc(CN(Cc3ccco3)C3CC3)nc12 [CBK305613] | 82.3% |
| COc1ccc(CC(=O)NCC(c2cccs2)N2CCOCC2)cc1F (stereo not shown) [CBK305618] | 99.5% |
| CS(=O)(=O)NC1CCCN(c2ncnc3ccccc23)C1 (stereo not shown) [CBK305619] | 111% |
| Cc1cc(C)n(CC(=O)NCC(c2cccs2)N2CCOCC2)n1 (stereo not shown) [CBK305620] | 102% |
| Cc1cc(C)n(CC(C)CNC(=O)Cc2csc(N3CCCC3=O)n2)n1 (stereo not shown) [CBK305624] | 91.2% |
| Cn1cc(-c2nc(C(=O)NC3CCCN(c4ncccn4)C3)cs2)cn1 (stereo not shown) [CBK305629] | 77.7% |
| CC(C)c1nc(CC(=O)NCCS(=O)(=O)N2CCc3ccccc32)cs1 [CBK305630] | 84.5% |
| Cc1occc1C(=O)Nc1nc(CC(=O)N(C)Cc2ccsc2)cs1 [CBK305631] | 83.8% |
| Cc1nc(-c2ccsc2)sc1C(=O)NC1CCCN(c2ncccn2)C1 (stereo not shown) [CBK305632] | 87.6% |
| Cn1cc(-c2nc(C(=O)NCC3CCN(c4ccccc4)C3)cs2)cn1 (stereo not shown) [CBK305633] | 84.8% |
| CC1c2ccsc2CCN1C(=O)CC(NC(N)=O)c1cccc(Br)c1 (stereo not shown) [CBK305635] | 110% |
| Cc1cc(NC(=O)CCc2c(C)nc(N3CCOCC3)[nH]c2=O)no1 [CBK305636] | 93.2% |
| O=C(NCCNc1cnccn1)c1ccc(Br)cc1F [CBK305639] | 89.5% |

| Structure (SMILES) | viability at 28.5 h, 10 µM |
| --- | --- |
| COCCn1c(SCc2nc3ccccc3nc2C)nc(C)c1C [CBK305651] | 106% |
| Cc1c(C(=O)NC2CCCN(c3ncccn3)C2)cnn1C(C)(C)C (stereo not shown) [CBK305652] | 91.3% |
| Cn1cc(CCNC(=O)Nc2ccc(N3CCCCC3)nc2)cn1 [CBK305656] | 95.2% |
| Cc1nn(C)c2ncc(C(=O)N(C)Cc3ccc(C(C)(C)C)cc3)cc12 [CBK305657] | 99.9% |
| O=C(NCc1cccs1)NC1CCCc2c1cnn2CCO (stereo not shown) [CBK305658] | 100% |
| Cc1nc(COc2ccc(C(=O)N3CCCC(C(N)=O)C3)cc2)no1 (stereo not shown) [CBK305660] | 84.2% |
| CCOC(=O)C1CCCN(C(=O)Nc2cc(C)on2)C1 (stereo not shown) [CBK305661] | 81.8% |
| CCCNC(=O)CN1CCC(NC(=O)Cn2cc(Br)ccc2=O)CC1 [CBK305665] | 94% |
| Cn1cc(-c2nc(C(=O)NCc3ccnc(N4CCCC4)c3)cs2)cn1 [CBK305666] | 92.9% |
| O=C(Cn1cc(Br)ccc1=O)NC1CCCN(Cc2ccccc2)C1 (stereo not shown) [CBK305668] | 83.7% |
| Cc1cccc(CN2CCC(NC(=O)Cn3cc(Br)ccc3=O)CC2)c1 [CBK305669] | 80% |
| O=C(Cn1cc(Br)ccc1=O)NC1CCN(Cc2ccccc2)CC1 [CBK305671] | 95.6% |
| CCCNC(=O)CN(C)Cc1nc(-c2cccc(C(F)(F)F)c2)no1 [CBK305672] | 103% |
| Cn1cc(C(=O)NC2CCN(C(=O)c3cccc(C#N)c3)CC2)cn1 [CBK305673] | 110% |
| O=C(CCN1CCCC1Cn1cncn1)NCCc1ccccc1 (stereo not shown) [CBK305677] | 92.9% |
| CC(OCc1ccccc1)C(=O)NCC1(N2CCOCC2)CCSC1 (stereo not shown) [CBK305678] | 114% |
| CC(=O)Nc1ccc(CNC(=O)c2cccnc2OCC(F)(F)F)cc1 [CBK305682] | 91.5% |
| Cn1cc(C(=O)NC2CCN(C(=O)c3ccc(C#N)cc3)CC2)cn1 [CBK305683] | 94.4% |
| Cc1cc(NC(=O)C2CCN(CCOc3ccccc3F)CC2)no1 [CBK305688] | 100% |
| CCCC(=O)Nc1ccc(OCCOC(C)(C)C)c(C(C)=O)c1 [CBK305691] | 79.8% |
| Cc1nn(CCC#N)c(C)c1CCC(=O)NCc1ccccn1 [CBK305693] | 82.5% |
| CCOC(=O)c1cnn2c(O)cc(CN3CCCc4ccccc43)nc12 [CBK305694] | 118% |
